Measured values reported in ChEMBL document CHEMBL4732190, “Identification of Potent and Long-Acting Single-Chain Peptide Mimetics of Human Relaxin-2 for Cardiovascular Diseases” (J Med Chem, 2021).
*1 amine or outer side, *2 acyl side, *3 side chain or, on linkers, in order; H or OH if unused. Where a SMILES comes first, the peptide text is derived from it. [ ]: non-standard residue; d: D form. The star is where a group is joined. PEG11 = NCCOCCOCCOCCOCCOCCOCCOCCOCCOCCOCCOCCC(=O)O; X8 = NC(=O)CC[C@H](N*)C(=O)CCCCCCCCCCCCCCCC(=O)O; X7 = CCCCCCCCCCCCCCCC(=O)[C@H](CCC(N)=O)N*; β2hAla(2S) = C[C@@H](CN[*:1])C(=O)[*:2]; X4 = CCCC[C@H](O[*:1])C(=O)[*:2]; hLys = NCCCCC[C@H](N)C(=O)O; Nle = CCCC[C@H](N)C(=O)O

What was measured:
Relaxin receptor 1 [1] = molecular target: T1, Relaxin receptor 1 (Homo sapiens, UniProt Q9HBX9); assay: Agonist activity at RXFP1 endogenously expressed in human OVCAR-5 cells assessed as increase in IBMX-induced cAMP accumulation pretreated with IBMX for 40 mins followed by compound addition and measured after 30 mins by HTRF assay; format: functional, cell-based
T1 sequence (Q9HBX9 whole entry): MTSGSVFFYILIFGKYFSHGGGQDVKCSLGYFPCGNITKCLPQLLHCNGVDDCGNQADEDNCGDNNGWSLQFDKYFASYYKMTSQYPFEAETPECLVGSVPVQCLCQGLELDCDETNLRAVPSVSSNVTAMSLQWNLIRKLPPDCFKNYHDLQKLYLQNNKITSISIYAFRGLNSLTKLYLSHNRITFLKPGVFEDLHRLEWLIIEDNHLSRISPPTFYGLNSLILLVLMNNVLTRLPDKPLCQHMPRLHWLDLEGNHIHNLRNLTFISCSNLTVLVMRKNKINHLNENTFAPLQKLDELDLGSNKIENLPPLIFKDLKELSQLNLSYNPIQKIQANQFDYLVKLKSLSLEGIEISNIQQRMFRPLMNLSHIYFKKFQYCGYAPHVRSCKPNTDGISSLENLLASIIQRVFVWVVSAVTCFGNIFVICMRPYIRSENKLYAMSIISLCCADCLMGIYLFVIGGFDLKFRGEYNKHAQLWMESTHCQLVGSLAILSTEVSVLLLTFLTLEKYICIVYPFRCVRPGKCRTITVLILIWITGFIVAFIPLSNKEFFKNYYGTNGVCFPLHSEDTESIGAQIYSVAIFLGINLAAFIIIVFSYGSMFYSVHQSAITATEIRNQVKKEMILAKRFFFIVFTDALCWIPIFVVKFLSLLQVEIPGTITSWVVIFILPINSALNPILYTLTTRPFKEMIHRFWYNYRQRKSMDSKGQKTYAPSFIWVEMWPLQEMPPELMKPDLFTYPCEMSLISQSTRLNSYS

Relaxin receptor 1 [2] = molecular target: T1, Relaxin receptor 1; assay: Agonist activity at RXFP1 endogenously expressed in human OVCAR-5 cells assessed as increase in IBMX-induced cAMP accumulation pretreated with IBMX for 40 mins followed by compound addition and measured after 30 mins in presence of 2 % HSA by HTRF assay; format: functional, cell-based
[3] = molecular target: T2, Relaxin receptor 1 (Homo sapiens) (UniProt Q9HBX9); assay: Agonist activity at RXFP1 endogenously expressed in human OVCAR-5 cells assessed as increase in IBMX-induced cAMP accumulation pretreated with IBMX for 40 mins followed by compound addition and measured after 30 mins by HTRF assay relative to relaxin; format: functional, cell-based; conditions: filed as agonist
T2 sequence (whole entry): T1 sequence (Q9HBX9 whole entry)

[4] = Half life in Sprague-Dawley rat at 1 mg/kg, iv measured upto 72 hrs by LC-HRMS analysis; format: ADME, organism-based; conditions: in vivo
[5] = Stability in rat plasma assessed as parent compound remaining level at 5 uM remaining after 4 hrs; format: ADME, cell-free; conditions: read-out: Stabilty
[6] = Stability in human plasma assessed as parent compound remaining level at 5 uM remaining after 4 hrs; format: ADME, cell-free; conditions: read-out: Stabilty

| Compound | EC50 (Relaxin receptor 1 [1]) [nM] | EC50 (Relaxin receptor 1 [2]) [nM] | Emax [3] [%] | half-life [4] [h] | remaining at 4 h, 5 µM [5] [%] | remaining at 4 h, 5 µM [6] [%] |
| --- | --- | --- | --- | --- | --- | --- |
| CCCCCCCCCCCCCCCC(=O)[C@H](CCC(N)=O)NC(=O)[C@H](CCC(=O)O)NC(=O)[C@H](CCC(=O)O)NC(=O)[C@H](CCCCN)NC(=O)CCOCCOCCOCCOCCOCCOCCOCCOCCOCCOCCOCCNC(=O)[C@H](CCCCN)NC(=O)[C@H](CCCNC(=N)N)NC(=O)[C@@H](C)CNC(=O)[C@H](CO)NC(=O)[C@H](Cc1c[nH]c2ccccc12)NC(=O)[C@@H](NC(=O)[C@H](CO)NC(=O)[C@H](CCCC)NC(=O)[C@H](CCSC)NC(=O)CNC(=O)[C@H](CCC(=O)O)NC(=O)[C@@H](C)CNC(=O)[C@@H](C)CNC(=O)[C@@H](NC(=O)[C@H](CCC(N)=O)NC(=O)[C@H](C)NC(=O)[C@H](CCCNC(=N)N)NC(=O)[C@@H](NC(=O)[C@H](CCCCN)NC(=O)[C@H](CCC(=O)O)NC(=O)[C@H](CCCNC(=N)N)NC(=O)[C@H](CCC(=O)O)NC(=O)CNC(=O)[C@H](CCC(=O)O)NC(=O)[C@H](CC(C)C)NC(C)=O)C(C)C)[C@@H](C)CC)[C@@H](C)O (Ac-LEGEREKVRAQI[β2hAla(2S)][β2hAla(2S)]EGM[Nle]STWS[β2hAla(2S)]RK[PEG11]KEE-X7) | 3.2 |  | 74 | 6.4 |  |  |
| Ac-EEVIKLSGRELVRAQIAISGMSTWSKRKK-NH2 | 897 |  | 92 |  |  |  |
| CCCC[C@H](OC(=O)CNC(=O)[C@H](CCC(=O)O)NC(=O)[C@@H](C)CNC(=O)[C@@H](C)CNC(=O)[C@@H](NC(=O)[C@H](CCCCCNC(C)=O)NC(=O)[C@@H](C)CNC(=O)[C@@H](C)CNC(=O)[C@H](CCCCN)NC(=O)[C@H](C)NC(=O)[C@H](CCCNC(=N)N)NC(=O)[C@@H](NC(=O)[C@H](CCCCN)NC(=O)[C@H](CCC(=O)O)NC(=O)[C@H](CCCNC(=N)N)NC(=O)CNC(=O)[C@H](CCC(=O)O)NC(=O)[C@H](CC(C)C)NC(C)=O)C(C)C)[C@@H](C)CC)C(=O)N[C@@H](CO)C(=O)N[C@H](C(=O)N[C@@H](Cc1c[nH]c2ccccc12)C(=O)N[C@@H](CO)C(=O)NC[C@H](C)C(=O)N[C@@H](CCCNC(=N)N)C(=O)N[C@@H](CCCCN)C(=O)N[C@@H](CCCCN)C(N)=O)[C@@H](C)O (Ac-LEGREKVRAK[β2hAla(2S)][β2hAla(2S)][hLys](Ac)I[β2hAla(2S)][β2hAla(2S)]EG[X4]STWS[β2hAla(2S)]RKK-NH2) | 45 |  | 95 |  |  |  |
| CC[C@H](C)[C@H](NC(=O)[C@H](CCC(N)=O)NC(=O)[C@H](C)NC(=O)[C@H](CCCNC(=N)N)NC(=O)[C@@H](NC(=O)[C@H](CC(C)C)NC(=O)[C@H](CCC(=O)O)NC(=O)[C@H](CCCNC(=N)N)NC(=O)CNC(=O)[C@H](CO)NC(=O)[C@H](CC(C)C)NC(=O)[C@H](CCCCN)NC(=O)[C@@H](NC(=O)[C@@H](NC(=O)[C@H](CCC(=O)O)NC(=O)[C@H](CCC(=O)O)NC(C)=O)C(C)C)[C@@H](C)CC)C(C)C)C(=O)NC[C@H](C)C(=O)NC[C@H](C)C(=O)N[C@@H](CO)C(=O)NCC(=O)N[C@@H](CCSC)C(=O)N[C@@H](CO)C(=O)N[C@H](C(=O)N[C@@H](Cc1c[nH]c2ccccc12)C(=O)N[C@@H](CO)C(=O)N[C@@H](CCCCN)C(=O)N[C@@H](CCCNC(=N)N)C(=O)N[C@@H](CCCCN)C(=O)N[C@@H](CCCCN)C(N)=O)[C@@H](C)O (HELM PEPTIDE1{[ac].E.E.V.I.K.L.S.G.R.E.L.V.R.A.Q.I.[C[C@@H](CN[*:1])C(=O)[*:2]].[C[C@@H](CN[*:1])C(=O)[*:2]].S.G.M.S.T.W.S.K.R.K.K.[am]}$$$$V2.0) | 37 |  | 94 |  |  |  |

Continued by falling EC50 (Relaxin receptor 1 [1]), values first:

| EC50 (Relaxin receptor 1 [1]) [nM] | EC50 (Relaxin receptor 1 [2]) [nM] | Emax [3] [%] | half-life [4] [h] | remaining at 4 h, 5 µM [5] [%] | remaining at 4 h, 5 µM [6] [%] | Compound |
| --- | --- | --- | --- | --- | --- | --- |
| 809 | > 2000 | 70 |  |  |  | CCCC[C@H](NC(=O)[C@H](CCSC)NC(=O)CNC(=O)[C@H](CCC(=O)O)NC(=O)[C@@H](C)CNC(=O)[C@@H](C)CNC(=O)[C@@H](NC(=O)[C@H](CCCCCNC(C)=O)NC(=O)[C@H](CCCCN)NC(=O)[C@H](C)NC(=O)[C@H](CCCNC(=N)N)NC(=O)[C@@H](NC(=O)[C@H](CCCCN)NC(=O)[C@H](CCC(=O)O)NC(=O)[C@H](CCCNC(=N)N)NC(=O)[C@H](CCC(=O)O)NC(=O)CNC(=O)[C@H](CCC(=O)O)NC(=O)[C@H](CC(C)C)NC(C)=O)C(C)C)[C@@H](C)CC)C(=O)N[C@@H](CCCCN)C(=O)N[C@@H](CCCCCNC(C)=O)C(=O)N[C@@H](CO)C(=O)N[C@H](C(=O)N[C@@H](Cc1c[nH]c2ccccc12)C(=O)N[C@@H](CO)C(=O)NC[C@H](C)C(=O)N[C@@H](CCCNC(=N)N)C(=O)N[C@@H](CCCCN)C(=O)N[C@@H](CCCCN)C(=O)N[C@@H](CCCCCNC(C)=O)C(=O)N[C@@H](CCCCN)C(=O)N[C@@H](CCC(=O)O)C(=O)N[C@@H](CCC(=O)O)C(=O)N[C@@H](CCC(N)=O)C(=O)CCCCCCCCCCCCCCCC(=O)O)[C@@H](C)O (Ac-LEGEREKVRAK[hLys](Ac)I[β2hAla(2S)][β2hAla(2S)]EGM[Nle]K[hLys](Ac)STWS[β2hAla(2S)]RKK[hLys](Ac)KEE-X8) |
| 124 |  | 98 |  |  |  | CC[C@H](C)[C@H](NC(=O)[C@H](CCC(N)=O)NC(=O)[C@H](C)NC(=O)[C@H](CCCNC(=N)N)NC(=O)[C@@H](NC(=O)[C@H](CCCCN)NC(=O)[C@H](CCC(=O)O)NC(=O)[C@H](CCCNC(=N)N)NC(=O)CNC(=O)[C@H](CCC(=O)O)NC(=O)[C@H](CC(C)C)NC(=O)[C@H](CCCCN)NC(=O)[C@@H](NC(=O)[C@@H](NC(=O)[C@H](CCC(=O)O)NC(=O)[C@H](CCC(=O)O)NC(C)=O)C(C)C)[C@@H](C)CC)C(C)C)C(=O)NC[C@H](C)C(=O)N[C@H](C(=O)N[C@@H](CO)C(=O)NCC(=O)N[C@@H](CCSC)C(=O)N[C@@H](CO)C(=O)N[C@H](C(=O)N[C@@H](Cc1c[nH]c2ccccc12)C(=O)N[C@@H](CO)C(=O)N[C@@H](CCCCN)C(=O)N[C@@H](CCCNC(=N)N)C(=O)N[C@@H](CCCCN)C(=O)N[C@@H](CCCCN)C(N)=O)[C@@H](C)O)[C@@H](C)CC (HELM PEPTIDE1{[ac].E.E.V.I.K.L.E.G.R.E.K.V.R.A.Q.I.[C[C@@H](CN[*:1])C(=O)[*:2]].I.S.G.M.S.T.W.S.K.R.K.K.[am]}$$$$V2.0) |
| 92.1 |  | 99 |  |  |  | CC[C@H](C)[C@H](NC(=O)[C@H](CCC(N)=O)NC(=O)[C@H](C)NC(=O)[C@H](CCCNC(=N)N)NC(=O)[C@@H](NC(=O)[C@H](CC(C)C)NC(=O)[C@H](CCC(=O)O)NC(=O)[C@H](CCCNC(=N)N)NC(=O)CNC(=O)[C@H](CO)NC(=O)[C@H](CC(C)C)NC(=O)[C@H](CCCCN)NC(=O)[C@@H](NC(=O)[C@@H](NC(C)=O)C(C)C)[C@@H](C)CC)C(C)C)C(=O)NC[C@H](C)C(=O)NC[C@H](C)C(=O)N[C@@H](CO)C(=O)NCC(=O)N[C@@H](CCSC)C(=O)N[C@@H](CO)C(=O)N[C@H](C(=O)N[C@@H](Cc1c[nH]c2ccccc12)C(=O)N[C@@H](CO)C(=O)N[C@@H](CCCCN)C(=O)N[C@@H](CCCNC(=N)N)C(=O)N[C@@H](CCCCN)C(=O)N[C@@H](CCCCN)C(N)=O)[C@@H](C)O (HELM PEPTIDE1{[ac].V.I.K.L.S.G.R.E.L.V.R.A.Q.I.[C[C@@H](CN[*:1])C(=O)[*:2]].[C[C@@H](CN[*:1])C(=O)[*:2]].S.G.M.S.T.W.S.K.R.K.K.[am]}$$$$V2.0) |
| 14 |  | 99 |  | 24 | 79 | CC[C@H](C)[C@H](NC(=O)[C@H](CCC(N)=O)NC(=O)[C@H](C)NC(=O)[C@H](CCCNC(=N)N)NC(=O)[C@@H](NC(=O)[C@H](CCCCN)NC(=O)[C@H](CCC(=O)O)NC(=O)[C@H](CCCNC(=N)N)NC(=O)CNC(=O)[C@H](CCC(=O)O)NC(=O)[C@H](CC(C)C)NC(C)=O)C(C)C)C(=O)NC[C@H](C)C(=O)NC[C@H](C)C(=O)N[C@@H](CCC(=O)O)C(=O)NCC(=O)N[C@@H](CCSC)C(=O)N[C@@H](CO)C(=O)N[C@@H](CCCCN)C(=O)N[C@@H](Cc1c[nH]c2ccccc12)C(=O)N[C@@H](CO)C(=O)N[C@@H](CCCCN)C(=O)N[C@@H](CCCNC(=N)N)C(=O)N[C@@H](CCCCN)C(=O)N[C@@H](CCCCN)C(N)=O (HELM PEPTIDE1{[ac].L.E.G.R.E.K.V.R.A.Q.I.[C[C@@H](CN[*:1])C(=O)[*:2]].[C[C@@H](CN[*:1])C(=O)[*:2]].E.G.M.S.K.W.S.K.R.K.K.[am]}$$$$V2.0) |
